Results as given in US8338422B2, “Indolin-2-ones and aza-indolin-2-ones” (Janssen Pharmaceutica NV, priority 2007, dated 2012).
“And” between values parts separate entries of the source, which are not always exact repeats. Identical values can stand only once.

How the values were obtained:
[1] = system: MDA/MB231; assay: Cellular proliferation assay (Alamar blue), MDA/MB231; type: cell-based; details: MDA/MB231 cells, 72 hours with compound, 10% FCS; for IC50: Homo sapiens, MDA-MB-231, 72 h, read-out: pIC50 MDA/MB231 (converted)
Method: (§1) […] functional properties of these compounds was tested in cellular proliferation assays on a panel of different cell lines in the presence of 10% FCS serum (37° C. and 5% (v/v) CO2). In a first step these cells were seeded and incubated for 24 hours in the absence of compound. In the second step the cells were incubated for 72 hours with the compounds to be tested for 72 hours. The viable cell number was finally assessed in a standard Alamar blue cell viability assay.
(§2) The viable cell number was assessed by incubation for either 4 h (HCT-116, H1299, H460) 6 h (SKOV3, HT29, U87-MG, Colo205) or 24 h (A2780, PC3, MDA-MB-231, A549, MCF-7) with Alamar blue (Resazurin 9 μg/ml, K-Ferrocyanide 90 μM K-Ferricyanide 90 μM) and the converted fluorescent product was quantified on a fluorescent plate readed (544 nm/590 nm). Effect of the compounds is calculated as of on control cells.

[2] = system: PC-3; assay: Cellular proliferation assay (Alamar blue), PC-3; type: cell-based; details: PC-3 cells, 72 hours with compound, 10% FCS; for IC50: Homo sapiens, PC-3, 72 h, read-out: pIC50 PC-3 (converted)
Method: as §1, §2

[3] = target: PLK4 (h) (Homo sapiens, UniProt O00444); assay: PLK-4 human kinase assay (SPA); type: biochemical; details: for IC50: read-out: PLK4 pIC50 (converted)
Sequence of PLK4 (h) (O00444 whole entry): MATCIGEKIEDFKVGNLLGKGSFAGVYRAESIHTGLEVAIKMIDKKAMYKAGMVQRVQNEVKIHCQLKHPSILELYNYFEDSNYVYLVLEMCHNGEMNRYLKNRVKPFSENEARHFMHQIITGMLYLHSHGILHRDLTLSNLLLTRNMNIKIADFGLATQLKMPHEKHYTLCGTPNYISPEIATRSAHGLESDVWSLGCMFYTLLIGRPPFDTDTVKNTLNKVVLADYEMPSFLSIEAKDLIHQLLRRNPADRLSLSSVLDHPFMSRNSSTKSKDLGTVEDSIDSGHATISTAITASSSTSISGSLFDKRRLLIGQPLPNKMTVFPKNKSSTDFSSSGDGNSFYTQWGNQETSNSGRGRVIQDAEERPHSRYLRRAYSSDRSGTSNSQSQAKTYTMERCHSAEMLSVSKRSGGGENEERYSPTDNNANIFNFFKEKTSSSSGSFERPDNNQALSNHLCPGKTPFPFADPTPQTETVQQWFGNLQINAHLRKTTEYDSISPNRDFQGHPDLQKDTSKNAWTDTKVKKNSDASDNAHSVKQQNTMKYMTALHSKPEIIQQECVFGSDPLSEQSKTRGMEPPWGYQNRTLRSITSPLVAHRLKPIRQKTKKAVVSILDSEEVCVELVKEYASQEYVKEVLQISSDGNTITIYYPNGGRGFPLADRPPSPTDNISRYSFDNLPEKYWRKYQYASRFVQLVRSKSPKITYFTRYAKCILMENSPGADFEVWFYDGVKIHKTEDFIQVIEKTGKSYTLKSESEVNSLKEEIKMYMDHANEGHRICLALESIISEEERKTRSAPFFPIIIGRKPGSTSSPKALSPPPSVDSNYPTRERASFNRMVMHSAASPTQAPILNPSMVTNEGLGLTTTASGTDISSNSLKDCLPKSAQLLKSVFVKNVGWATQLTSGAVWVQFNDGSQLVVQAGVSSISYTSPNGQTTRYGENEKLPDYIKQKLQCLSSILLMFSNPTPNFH
Method in brief: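 Radiometric readout: 33P-labelled peptide captured on streptavidin SPA beads after EDTA stop, imaged by Leadseeker. Reaction ran 60 min at room temperature in Hepes pH 8.0 buffer. It contained 1 μM ATP with 2 nM [γ-33P]ATP, 10 μM biotinylated peptide and PLK4 (h) at 19 μg/ml.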

[4] = system: H1299; assay: Cellular proliferation assay (Alamar blue), H1299; type: cell-based; details: H1299 cells, 72 hours with compound, 10% FCS; for IC50: Homo sapiens, NCI-H1299, 72 h, read-out: pIC50 H1299 (converted)
Method: as §1, §2

[5] = target: CDK1/CyclinB (h) (Homo sapiens, UniProt P06493); assay: CDK1/CyclinB human kinase assay (FRET); type: biochemical; details: for IC50: read-out: CDK1 pIC50 (converted)
Sequence of CDK1/CyclinB (h) (P06493 whole entry): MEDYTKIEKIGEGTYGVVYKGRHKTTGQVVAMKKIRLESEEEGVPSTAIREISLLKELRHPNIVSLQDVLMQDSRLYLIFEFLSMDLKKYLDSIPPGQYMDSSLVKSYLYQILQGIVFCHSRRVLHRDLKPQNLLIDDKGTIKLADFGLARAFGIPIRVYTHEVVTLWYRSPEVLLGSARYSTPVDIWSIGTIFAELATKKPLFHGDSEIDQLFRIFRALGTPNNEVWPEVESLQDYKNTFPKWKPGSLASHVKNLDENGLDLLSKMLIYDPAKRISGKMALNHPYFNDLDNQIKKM
Sequence of CDK1/CyclinB (h) (P14635 whole entry partner): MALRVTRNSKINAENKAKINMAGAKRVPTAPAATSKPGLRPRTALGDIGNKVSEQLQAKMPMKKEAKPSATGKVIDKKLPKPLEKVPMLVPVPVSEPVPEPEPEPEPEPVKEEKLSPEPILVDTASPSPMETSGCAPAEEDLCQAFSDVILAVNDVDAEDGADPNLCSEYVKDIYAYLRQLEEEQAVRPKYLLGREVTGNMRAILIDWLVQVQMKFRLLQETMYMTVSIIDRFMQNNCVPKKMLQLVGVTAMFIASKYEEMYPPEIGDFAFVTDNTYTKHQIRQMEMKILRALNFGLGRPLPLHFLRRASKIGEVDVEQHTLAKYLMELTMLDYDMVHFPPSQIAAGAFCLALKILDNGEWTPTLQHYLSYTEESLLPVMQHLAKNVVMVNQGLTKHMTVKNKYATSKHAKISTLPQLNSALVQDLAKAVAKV
Method in brief: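 Kinase activity was read as the 460/538 nm emission ratio after protease cleavage of unphosphorylated peptide (60 min development). The reaction ran 60 min at room temperature with 10 μM ATP, 2 μM Ser/Thr peptide 12 and 0.2 μg/ml enzyme in Hepes pH 7.5 buffer with MgCl2, EGTA, Brij-35.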

[6] = system: A2780; assay: Cellular proliferation assay (Alamar blue), A2780; type: cell-based; details: A2780 cells, 72 hours with compound, 10% FCS; for IC50: Homo sapiens, A2780, 72 h, read-out: pIC50 A2780 (converted)
Method: as §1, §2

[7] = system: U87MG; assay: Cellular proliferation assay (Alamar blue), U87MG; type: cell-based; details: U87MG cells, 72 hours with compound, 10% FCS; for IC50: Homo sapiens, U-87 MG, 72 h, read-out: pIC50 U87MG (converted)
Method: as §1, §2

[8] = target: AuroraB (h) (Homo sapiens, UniProt Q96GD4); assay: Aurora-B human kinase assay (SPA); type: biochemical; details: for IC50: read-out: AuroraB pIC50 (converted)
Sequence of AuroraB (h) (Q96GD4 whole entry): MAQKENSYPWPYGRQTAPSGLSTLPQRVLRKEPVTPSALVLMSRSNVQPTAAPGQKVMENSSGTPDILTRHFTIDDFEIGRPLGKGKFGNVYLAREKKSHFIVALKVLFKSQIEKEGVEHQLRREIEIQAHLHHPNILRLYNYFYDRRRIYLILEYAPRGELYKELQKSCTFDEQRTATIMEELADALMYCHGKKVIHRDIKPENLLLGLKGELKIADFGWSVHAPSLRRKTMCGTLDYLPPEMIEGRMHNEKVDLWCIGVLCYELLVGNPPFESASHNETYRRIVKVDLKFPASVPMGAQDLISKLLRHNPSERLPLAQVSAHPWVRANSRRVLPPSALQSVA
Method in brief: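 33P-phosphorylated biotin-substrate captured on streptavidin PVT SPA beads after EDTA-containing stop and imaged on Leadseeker. Reaction: 60 min at room temperature, Hepes pH 7.5 with Mg2+/Mn2+. Conditions: 0.5 μM ATP plus 2.2 nM [γ-33P]ATP, 3 μM substrate, 0.5 μg/ml human AuroraB.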

[9] = target: GSK3β (h) (Homo sapiens, UniProt P49841); assay: GSK-3β human kinase assay (SPA); type: biochemical; details: for IC50: read-out: GSK3B pIC50 (converted)
Sequence of GSK3β (h) (P49841 whole entry): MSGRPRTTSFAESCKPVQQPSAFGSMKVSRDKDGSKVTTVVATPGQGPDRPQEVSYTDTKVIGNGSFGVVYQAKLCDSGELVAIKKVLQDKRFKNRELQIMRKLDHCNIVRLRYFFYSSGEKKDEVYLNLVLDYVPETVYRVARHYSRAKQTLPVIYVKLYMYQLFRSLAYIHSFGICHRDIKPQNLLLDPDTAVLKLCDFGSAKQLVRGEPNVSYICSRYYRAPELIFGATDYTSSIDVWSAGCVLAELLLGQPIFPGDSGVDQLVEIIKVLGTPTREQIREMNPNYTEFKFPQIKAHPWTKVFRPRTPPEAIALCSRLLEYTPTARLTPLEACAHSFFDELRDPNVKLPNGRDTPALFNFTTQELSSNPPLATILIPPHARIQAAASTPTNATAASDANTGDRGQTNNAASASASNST
Method in brief: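 Radiometric SPA read-out: after EDTA stop, biotinylated 33P-labelled peptide bound streptavidin PVT beads and was imaged on Leadseeker. Reaction: 60 min, room temperature, GSK3β (h) at 1 μg/ml, 1 μM substrate peptide, 1 μM ATP with 2 nM [γ-33P]ATP, Tris pH 7.4/MgCl2/DTT buffer.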

[10] = system: HCT-116; assay: Cellular proliferation assay (Alamar blue), HCT-116; type: cell-based; details: HCT-116 cells, 72 hours with compound, 10% FCS; for IC50: Homo sapiens, HCT-116, 72 h, read-out: pIC50 HCT-116 (converted)
Method: as §1, §2

SMILES | IC50 [2] | IC50 [3] | IC50 [4] | IC50 [5] | IC50 [6] | IC50 [7] | IC50 [9] | IC50 [10] | IC50 [8] | pIC50 MDA/MB231 [1] | pIC50 PC-3 [2] | PLK4 pIC50 [3] | pIC50 H1299 [4] | CDK1 pIC50 [5] | pIC50 A2780 [6] | pIC50 U87MG [7] | AuroraB pIC50 [8] | GSK3B pIC50 [9] | pIC50 HCT-116 [10] | IC50 [1]
CN1CCCNc2ncnc3c2C(=CNc2cccc(c2)OCCCC1=O)C(=O)N3 (mixture of isomers) [Compound 35] | – | – | – | – | – | – | – | – | – | <5 | 5.31 | 7.01 | 5.62 | 6.56 | 5.17 | 5.50 | 6.88 | 7.4 | 5.85 | –
COc1ccc2cc1OCCCCC(=O)NCCN(C)c1ncnc3c1C(=CN2)C(=O)N3 (mixture of isomers) [Compound 44] | – | – | – | – | – | – | – | – | – | <5 | <5 | 5.22 | <5 | <5 | <5 | <5 | <5 | 5.31 | <5 | –
COc1ccc2cc1OCCCCCC(=O)NCCN(C)c1ncnc3c1C(=CN2)C(=O)N3 (mixture of isomers) [Compound 46] | – | – | – | – | – | – | – | – | – | <5 | <5 | 5.18 | <5 | <5 | <5 | 5.04 | 5.13 | 5.07 | <5 | –
CN1CCCNc2ncnc3c2/C(=C/Nc2ccc(NC(=O)NC4CCCCC4)c(c2)OCCCC1=O)C(=O)N3 [Compound 107] | 1.58 µM | 1.05 µM | 0.275 µM | – | 0.0724 µM | 2.04 µM | 2 µM | 0.17 µM | 0.275 µM | – | – | – | – | – | – | – | – | – | – | 2.34 µM
CN1CCCNc2ncnc3c2/C(=C/Nc2ccc(NC(=O)c4ccccc4)c(c2)OCCCC1=O)C(=O)N3 [Compound 108] | > 10 µM | 0.891 µM | > 10 µM | – | > 10 µM | > 10 µM | 1.55 µM | > 10 µM | 0.617 µM | – | – | – | – | – | – | – | – | – | – | 8.32 µM
CN1CCCNc2ncnc3c2/C(=C/Nc2ccc(NS(=O)(=O)c4ccccc4)c(c2)OCCCC1=O)C(=O)N3 [Compound 109] | > 10 µM | 0.224 µM | > 10 µM | – | 0.871 µM | > 10 µM | 0.141 µM | 0.603 µM | 0.0912 µM | – | – | – | – | – | – | – | – | – | – | > 10 µM
CN1CCCNc2ncnc3c2/C(=C/Nc2ccc(NCc4ccccc4)c(c2)OCCCC1=O)C(=O)N3 [Compound 110] | 5.01 µM | 0.407 µM | 2.63 µM | – | 1.17 µM | 8.71 µM | 0.912 µM | 1.66 µM | 0.537 µM | – | – | – | – | – | – | – | – | – | – | > 10 µM
CN1CCCNc2ncnc3c2/C(=C/Nc2ccc(NC(=O)Nc4ccccc4)c(c2)OCCCC1=O)C(=O)N3 [Compound 158] | 1.32 µM | 2.75 µM | 0.55 µM | – | 0.166 µM | 1.23 µM | 3.55 µM | 0.229 µM | 0.331 µM | – | – | – | – | – | – | – | – | – | – | 4.37 µM
CN1CCNc2ncnc3c2/C(=C/Nc2cccc(c2)OCC(=O)N2CCC[C@@H]2C1)C(=O)N3 [Compound 168] | > 10 µM | > 10 µM and 6.17 µM | > 10 µM | – | > 10 µM | > 10 µM | 7.59 µM and 5.75 µM | > 10 µM | > 10 µM | – | – | – | – | – | – | – | – | – | – | > 10 µM
CN1CCNc2ncnc3c2/C(=C/Nc2cccc(c2)OCC(=O)N[C@H](Cc2ccccc2)C1)C(=O)N3 [Compound 169] | > 10 µM | 1.82 µM and 2 µM | 8.32 µM | – | 9.12 µM | 7.41 µM | 1.86 µM and 3.24 µM | > 10 µM | 3.55 µM | – | – | – | <5 | – | 5.08 | <5 | – | – | 5.07 | > 10 µM
CN1CCCNc2ncnc3c2/C(=C/Nc2cccc(c2)OCC(=O)N2CCC[C@@H]2C1)C(=O)N3 [Compound 170] | > 10 µM | 7.41 µM | > 10 µM | – | > 10 µM | > 10 µM | 8.91 µM | > 10 µM | > 10 µM | – | – | – | – | – | – | – | – | – | – | > 10 µM
CN1CCCNc2ncnc3c2/C(=C/Nc2cccc(c2)OCC(=O)N[C@H](Cc2ccccc2)C1)C(=O)N3 [Compound 176] | > 10 µM | 0.468 µM | > 10 µM | – | > 10 µM | > 10 µM | 9.55 µM | > 10 µM | 6.76 µM | – | – | – | – | – | – | – | – | – | – | > 10 µM
CN1CCNc2ncnc3c2/C(=C/Nc2ccc(Cl)c(c2)OCC(=O)N2CCC[C@@H]2C1)C(=O)N3 [Compound 192] | > 10 µM | > 10 µM | 2.51 µM | – | 3.09 µM | > 10 µM | 5.01 µM | 2.19 µM | > 10 µM | – | – | – | – | – | – | – | – | – | – | > 10 µM

Second part, led by results:

IC50 [2] | IC50 [3] | IC50 [4] | IC50 [5] | IC50 [6] | IC50 [7] | IC50 [9] | IC50 [10] | IC50 [8] | SMILES | pIC50 MDA/MB231 [1] | pIC50 PC-3 [2] | PLK4 pIC50 [3] | pIC50 H1299 [4] | CDK1 pIC50 [5] | pIC50 A2780 [6] | pIC50 U87MG [7] | AuroraB pIC50 [8] | GSK3B pIC50 [9] | pIC50 HCT-116 [10] | IC50 [1]
> 10 µM | 2.63 µM | > 10 µM | 4.27 µM | > 10 µM | > 10 µM | 2.51 µM | > 10 µM | – | CN1CCNC(=O)CCCCOc2cccc(c2)N/C=C2\C(=O)Nc3ncnc1c32 [Compound 43] | – | – | – | – | – | – | – | – | – | – | > 10 µM
> 10 µM | 0.417 µM | > 10 µM | – | > 10 µM | > 10 µM | 2.04 µM | > 10 µM | > 10 µM | C[C@@H]1CN(C)CCCNc2ncnc3c2/C(=C/Nc2cccc(c2)OCC(=O)N1)C(=O)N3 [Compound 99] | – | – | – | – | – | – | – | – | – | – | > 10 µM
> 10 µM | – | > 10 µM | > 10 µM | > 10 µM | > 10 µM | > 10 µM | > 10 µM | 1.38 µM | CN1CCCNc2ncnc3c2/C(=C/Nc2cc(cc(C(F)(F)F)c2)OCCCC1=O)C(=O)N3 [Compound 113] | – | – | – | – | – | – | – | – | – | – | > 10 µM
> 10 µM | 4.37 µM | > 10 µM | – | > 10 µM | > 10 µM | 2.88 µM | > 10 µM | > 10 µM | CN1CCNC(=O)CCCOc2cccc(c2)N/C=C2\C(=O)Nc3ncnc(c32)NCC1 [Compound 159] | – | – | – | – | – | – | – | – | – | – | > 10 µM
> 10 µM | 2.4 µM | > 10 µM | – | 5.89 µM | > 10 µM | 0.933 µM and 1.12 µM | 5.5 µM | 6.76 µM and 3.24 µM | CN1CCNC(=O)COc2cccc(c2)N/C=C2\C(=O)Nc3ncnc(c32)NCC1 [Compound 167] | – | – | – | – | – | 5.13 | – | – | – | 5.06 | > 10 µM
> 10 µM | – | > 10 µM | – | > 10 µM | > 10 µM | 4.07 µM | > 10 µM | 1.86 µM | COc1ccc2cc1OCC(=O)NCCN1CCN(CC1)c1ncnc3c1/C(=C/N2)C(=O)N3 [Compound 207] | – | – | – | – | – | – | – | – | – | – | > 10 µM
